Results: patent US20250154590A1, “USE OF SET7/9 FOR DIAGNOSING AND TREATING ENDMT-RELATED DISEASE” (IBMSOL CO., LTD., priority 2021, published 2025)

How the values were obtained:
PAECs [1] = assay: Dil-Ac-LDL uptake assay; assay type: cell-based, human; details: TGF-β2, IL-1β and (R)-PFI-2; FIG. 9E
Procedure: PAECs were seeded at 2×10^5 cells per well in a 12-well plate. After a drug treatment, the cells were reacted with Dil-Ac-LDL (Invitrogen, 10 μg/ml) at 37° C. for 3 hours. After the reaction, the cells were washed four times with 1×PBS and then subjected to image analysis with a fluorescence microscope.

[2] = system: pulmonary artery endothelial cells; assay: Phalloidin staining of cytoskeleton change in EndMT-induced pulmonary artery endothelial cells; assay type: cell-based, human; details: TGF-β2, IL-1β and (R)-PFI-2; FIG. 9C
Procedure: PAECs and Lenti-X-293T were immobilized with 4% formaldehyde and washed with 1×PBS. Thereafter, the cells were permeabilized with 0.2% Triton X-100 and blocked with 1% BSA dissolved in 1×PBS for 1 hour at room temperature. The cells were reacted with the following primary antibodies at 4° C. overnight: anti-VE-cadherin (Cell Signaling, 2500S, 1:100), anti-Fibronectin (BD Pharmigen, 61007, 1:100), anti-TAGLN (Abcam, ab14106, 1:200), anti-α-SMA conjugated with Cy3 (Sigma Aldrich, C6198, 1:200), anti-NF-κB p65 (Cell signaling, 8242S, 1:400), anti-SET7/9 (LsBio, C337450, 1:100), and rhodamine phalloidin (Sigma Aldrich, 1:1,000). Secondary antibodies of donkey anti-goat Alexa Fluor 488 and donkey anti-goat Alexa Fluor 568 (Invitrogen, 1:400) were reacted at room temperature for 1 hour. In order to obtain immunostaining images, a confocal microscope equipped with a 60× objective lens (Zeiss LSM-700) was used.
In order to confirm the inhibitory effect of the drug on endothelial-mesenchymal transition, a model in which pulmonary artery endothelial cells were simultaneously treated with cyproheptadine along with TGF-β2 and IL-1β for 5 to 7 days was used. […]

[3] = system: pulmonary artery endothelial cells; assay: EndMT marker expression (Western blot, qRT-PCR) in pulmonary artery endothelial cells treated with TGF-β2 and IL-1β; assay type: cell-based, human; details: PAECs treated simultaneously with TGF-β2, IL-1β and (R)-PFI-2
Procedure: Pulmonary arterial ECs (PAECs) and human umbilical vein ECs (HUVECs) were cultured in EGM-2 (Lonza) to which MycoZap (Lonza) and 1% penicillin-streptomycin (Welgene) were added. Human Microvascular ECs (HMVECs) were cultured in EGM-2-MV (Lonza), and Lenti-λ-293T and MCF7 cells were cultured in Dulbecco's modified Eagle medium (DMEM) (HyClone) containing 10% fetal bovine serum (FBS, HyClone), 1% penicillin-streptomycin (Welgene), and MycoZap (Lonza). All cell lines were cultured at 37° C. in a 5% CO2 incubator and cultured at 90% density.
TGF-β2 was purchased from Peprotech and dissolved in pure water containing 0.1% bovine serum albumin (BSA). IL-1β was purchased from R&D System and dissolved in 1×PBS containing 0.1% BSA. […]
In order to isolate the total RNA, miRNeasy RNA isolation kit (QIAGEN) was used. The purified RNA was reverse transcribed using qPCRBIO cDNA Synthesis Kit (PCR-BIOSYSTEMS), and real-time quantitative PCR (qRT-PCR) was performed using qPCRBIO SyGreen Mix Hi-ROX (PCR-BIOSYSTEMS) according to the manufacturer's instructions. […]
All cells were lysed in radioimmunoprecipitation assay (RIPA) buffer (Biosesang) containing protease (GenDepot) and phosphatase (Sigma Aldrich) inhibitors for 20 minutes. […] A protein concentration was measured using Pierce BCA Protein Assay Kit (Thermo Scientific), and Laemmli SDS Sample Buffer was added to an equal amount of protein and boiled. […]

SET7/9 = molecular target: T1, SET7/9 (Homo sapiens, UniProt Q8WTS6); details: acts by attaching to the substrate peptide binding groove of SET7/9; cited from earlier work
T1 sequence (Q8WTS6 1-366): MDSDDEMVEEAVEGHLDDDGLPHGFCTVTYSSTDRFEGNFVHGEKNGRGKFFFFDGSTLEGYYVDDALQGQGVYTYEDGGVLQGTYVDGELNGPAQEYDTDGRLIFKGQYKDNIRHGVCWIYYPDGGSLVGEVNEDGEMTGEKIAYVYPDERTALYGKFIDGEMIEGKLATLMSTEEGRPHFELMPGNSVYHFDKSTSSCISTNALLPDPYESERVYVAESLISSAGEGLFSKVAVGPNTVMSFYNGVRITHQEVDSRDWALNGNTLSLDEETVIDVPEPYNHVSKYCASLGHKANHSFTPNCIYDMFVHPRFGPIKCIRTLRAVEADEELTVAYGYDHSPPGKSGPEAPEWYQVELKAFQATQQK

PAECs [4] = assay: Dextran permeation assay; assay type: cell-based, human; details: TGF-β2, IL-1β and (R)-PFI-2; FIG. 9D
Procedure: PAECs were seeded at 2×10^5 cells per well in a 24-well plate equipped with a cell culture inlet (SPL, 0.4 μm). After a drug treatment, the insert was transferred to a well containing a serum-free medium (SFM), the medium in the insert was replaced with SFM containing FITC-dextran (Sigma Aldrich, FD40S, 1 mg/ml). After 10 minutes and 1 hour, a part of SFM was taken out from the plate well where dextran permeation occurred, and the fluorescence was measured. The fluorescence intensity was measured on a microplate reader (excitation, 485 nm; emission, 530 nm).

[5] = system: SuHx-induced pulmonary arterial hypertension rats; assay: SuHx-induced pulmonary arterial hypertension animal model; assay type: in vivo, rat; details: subcutaneously 10 mg/kg for 3 weeks
Procedure: 8-Week-old male Sprague Dawley rats (specific-pathogen-free grade form SaeronBio, Republic of Korea) were used for the PAH rat model.
Semaxanib (DC Chemicals, SU5416) dissolved in DMSO and then suspended in a buffer (0.5% sodium carboxymethylcellulose, 0.5% sodium chloride, 0.4% Tween-80, and 0.9% benzyl alcohol that were dissolved in deionized water) was injected subcutaneously into the rats at 20 mg/kg. The rats were exposed to 10% 02 hypoxic conditions for 3 weeks. After the rats were restored to normoxic conditions, Cyproheptadine (Cayman) or (R)-PFI-2 (DC Chemicals) was administered. Cyproheptadine was administered intraperitoneally every day at 5 mg/kg for 2 weeks, and (R)-PFI-2 was administered subcutaneously every 2 days at 10 mg/kg for 3 weeks. A right ventricular systolic pressure (RVSP) was measured, and the rats were sacrificed.
Proteins were separated by sodium dodecyl sulfate polyacrylamide gel electrophoresis (SDS-PAGE) and transferred to a polyvinylidene difluoride membrane (Millipore). After blocking the membrane with 3% BSA dissolved in 0.2% PBS with Tween® detergent (PBST), the proteins on the membrane were reacted with the primary antibodies listed in Table 2 overnight. For immunodetection, HRP-conjugated secondary antibodies (1:4,000) were conjugated with the primary antibodies at room temperature for 1 hour (average temperature of 22° C.), and then detected using an enhanced chemiluminescence detection system (Thermo Scientific). In order to separate cytoplasmic and nuclear proteins, EpiQuik Nuclear Extraction Kit (EpiGentek) was used according to the manufacturer's instructions. Protein extracts from animal lung tissue were homogenized in RIPA buffer for 3 minutes at a frequency of 25 Hz.
The harvested animal lung tissue was embedded in paraffin blocks and cut into […] sections. The paraffin sections were deparaffinized using Histoclear for 10 minutes. In order to hydrate the sections, ethanol dissolved in pure water was used according to a concentration gradient (100%, 90%, 70%, 50%, 30%, and 0%). The tissue slides were placed in Borg Decloaker RTU antigen retrieval solution (Biocare Medical) and the sections were heated using a pressure cooker to recover antigens. When the temperature of the recovery solution was lowered, the sections were washed three times with 1×PBS for 5 minutes each, and then blocked with a blocking buffer (1% BSA and 5% goat serum dissolved in 1×PBS) at room temperature for 30 minutes. The sections were reacted with the primary antibodies at 4° C. overnight. Anti-vWF conjugated with FITC (Abcam, ab8822, 1:50), anti-α-SMA conjugated with Cy3 (Sigma Aldrich, C6198, 1:100), anti-SM22a (Abcam, ab14106, 1:130), and anti-SET7/9 (LsBio, C337450, 1:50) were used. For fluorescent staining, the sections were reacted with the secondary antibodies such as donkey anti-goat Alexa Fluor 568 (Invitrogen, 1:150 to 1:400), Goat anti-Rabbit Alexa Fluor 647 (Invitrogen, 1:150), and donkey anti-goat Alexa Fluor 568 (Invitrogen, 1:400) at room temperature for 1 hour. For color staining, after the sections were reacted with the primary antibodies overnight, the sections were reacted with Goat anti-Mouse IgG Secondary Antibody, HRP (Pierce, 1:100) for 1 hour and subjected to a color reaction using DAB staining kit (Vector, SK-4800). Hematoxylin-eosin staining was performed using staining products available from Vector. Image analysis was performed using confocal microscopes equipped with a 40× objective available from Zeiss and Leica. The co-localization effect was verified through Mander's overlap coefficient (MOC). […]
In order to confirm the effect of (R)-PFI-2 in an animal model, (R)-PFI-2 was administered subcutaneously to SuHx-induced pulmonary arterial hypertension rats at a concentration of 10 mg/kg for 3 weeks. […]

O=C([C@@H](Cc1cccc(C(F)(F)F)c1)NS(=O)(=O)c1cc(F)c2c(c1)CCNC2)N1CCCC1 [(R)-PFI-2]
Dil-Ac-LDL uptake ability (PAECs [1]): restored | change in cytoskeleton (phalloidin staining) [2]: reduced | expression of endothelial cell marker CD31 and mesenchymal cell markers TNC, FN, Calponin, SM22α (Western blot) ([3]; FIG. 9A): restoration | expression of PECAM1 and FN, CDH2, COL3A1 (qRT-PCR) ([3]; FIG. 9B): restoration | mode of inhibition of SET7/9 (SET7/9): substrate competitive inhibitor | permeability (PAECs [4]): restored | SET7/9 expression in blood vessels ([5]; SuHx rat lung tissue, FIG. 10D): decrease | area where endothelial and mesenchymal cell markers were simultaneously stained (EndMT) ([5]; SuHx rat lung tissue, FIG. 10D): decrease | right ventricular systolic pressure (RVSP mmHg) ([5]; SuHx rats, FIG. 10A): decreased | right ventricle/left ventricle+septum ratio (RV/LV+S %) ([5]; SuHx rats, FIG. 10B): decreased | right ventricle weight (RV mg) ([5]; SuHx rats, FIG. 10C): decreased | muscularization of lung tissue blood vessels (immunohistochemical staining) ([5]; SuHx rats, FIG. 10D): significantly reduced | expression of TGFβR1 in lung tissue ([5]; SuHx rats, FIG. 10F): decreased | expression of mesenchymal cell markers such as Twist and pVIM in lung tissue ([5]; SuHx rats, FIG. 10F): decreased | expression of phosphorylated SMAD2 protein in lung tissue ([5]; SuHx rats, FIG. 10F): significantly decreased | number of blocked or enlarged blood vessels in lung tissue (H&E staining) ([5]; compared to SuHx group, FIG. 10E): reduced
